Test results as given in patent publication US8802864B2, “Triazolones as fatty acid synthase inhibitors” (GlaxoSmithKline LLC, priority 2010, dated 2014).

These compounds were tested against T1, FAS (Homo sapiens (Human), UniProt P49327) (assay: biochemical). Details: not given.
T1 sequence (P49327 whole entry): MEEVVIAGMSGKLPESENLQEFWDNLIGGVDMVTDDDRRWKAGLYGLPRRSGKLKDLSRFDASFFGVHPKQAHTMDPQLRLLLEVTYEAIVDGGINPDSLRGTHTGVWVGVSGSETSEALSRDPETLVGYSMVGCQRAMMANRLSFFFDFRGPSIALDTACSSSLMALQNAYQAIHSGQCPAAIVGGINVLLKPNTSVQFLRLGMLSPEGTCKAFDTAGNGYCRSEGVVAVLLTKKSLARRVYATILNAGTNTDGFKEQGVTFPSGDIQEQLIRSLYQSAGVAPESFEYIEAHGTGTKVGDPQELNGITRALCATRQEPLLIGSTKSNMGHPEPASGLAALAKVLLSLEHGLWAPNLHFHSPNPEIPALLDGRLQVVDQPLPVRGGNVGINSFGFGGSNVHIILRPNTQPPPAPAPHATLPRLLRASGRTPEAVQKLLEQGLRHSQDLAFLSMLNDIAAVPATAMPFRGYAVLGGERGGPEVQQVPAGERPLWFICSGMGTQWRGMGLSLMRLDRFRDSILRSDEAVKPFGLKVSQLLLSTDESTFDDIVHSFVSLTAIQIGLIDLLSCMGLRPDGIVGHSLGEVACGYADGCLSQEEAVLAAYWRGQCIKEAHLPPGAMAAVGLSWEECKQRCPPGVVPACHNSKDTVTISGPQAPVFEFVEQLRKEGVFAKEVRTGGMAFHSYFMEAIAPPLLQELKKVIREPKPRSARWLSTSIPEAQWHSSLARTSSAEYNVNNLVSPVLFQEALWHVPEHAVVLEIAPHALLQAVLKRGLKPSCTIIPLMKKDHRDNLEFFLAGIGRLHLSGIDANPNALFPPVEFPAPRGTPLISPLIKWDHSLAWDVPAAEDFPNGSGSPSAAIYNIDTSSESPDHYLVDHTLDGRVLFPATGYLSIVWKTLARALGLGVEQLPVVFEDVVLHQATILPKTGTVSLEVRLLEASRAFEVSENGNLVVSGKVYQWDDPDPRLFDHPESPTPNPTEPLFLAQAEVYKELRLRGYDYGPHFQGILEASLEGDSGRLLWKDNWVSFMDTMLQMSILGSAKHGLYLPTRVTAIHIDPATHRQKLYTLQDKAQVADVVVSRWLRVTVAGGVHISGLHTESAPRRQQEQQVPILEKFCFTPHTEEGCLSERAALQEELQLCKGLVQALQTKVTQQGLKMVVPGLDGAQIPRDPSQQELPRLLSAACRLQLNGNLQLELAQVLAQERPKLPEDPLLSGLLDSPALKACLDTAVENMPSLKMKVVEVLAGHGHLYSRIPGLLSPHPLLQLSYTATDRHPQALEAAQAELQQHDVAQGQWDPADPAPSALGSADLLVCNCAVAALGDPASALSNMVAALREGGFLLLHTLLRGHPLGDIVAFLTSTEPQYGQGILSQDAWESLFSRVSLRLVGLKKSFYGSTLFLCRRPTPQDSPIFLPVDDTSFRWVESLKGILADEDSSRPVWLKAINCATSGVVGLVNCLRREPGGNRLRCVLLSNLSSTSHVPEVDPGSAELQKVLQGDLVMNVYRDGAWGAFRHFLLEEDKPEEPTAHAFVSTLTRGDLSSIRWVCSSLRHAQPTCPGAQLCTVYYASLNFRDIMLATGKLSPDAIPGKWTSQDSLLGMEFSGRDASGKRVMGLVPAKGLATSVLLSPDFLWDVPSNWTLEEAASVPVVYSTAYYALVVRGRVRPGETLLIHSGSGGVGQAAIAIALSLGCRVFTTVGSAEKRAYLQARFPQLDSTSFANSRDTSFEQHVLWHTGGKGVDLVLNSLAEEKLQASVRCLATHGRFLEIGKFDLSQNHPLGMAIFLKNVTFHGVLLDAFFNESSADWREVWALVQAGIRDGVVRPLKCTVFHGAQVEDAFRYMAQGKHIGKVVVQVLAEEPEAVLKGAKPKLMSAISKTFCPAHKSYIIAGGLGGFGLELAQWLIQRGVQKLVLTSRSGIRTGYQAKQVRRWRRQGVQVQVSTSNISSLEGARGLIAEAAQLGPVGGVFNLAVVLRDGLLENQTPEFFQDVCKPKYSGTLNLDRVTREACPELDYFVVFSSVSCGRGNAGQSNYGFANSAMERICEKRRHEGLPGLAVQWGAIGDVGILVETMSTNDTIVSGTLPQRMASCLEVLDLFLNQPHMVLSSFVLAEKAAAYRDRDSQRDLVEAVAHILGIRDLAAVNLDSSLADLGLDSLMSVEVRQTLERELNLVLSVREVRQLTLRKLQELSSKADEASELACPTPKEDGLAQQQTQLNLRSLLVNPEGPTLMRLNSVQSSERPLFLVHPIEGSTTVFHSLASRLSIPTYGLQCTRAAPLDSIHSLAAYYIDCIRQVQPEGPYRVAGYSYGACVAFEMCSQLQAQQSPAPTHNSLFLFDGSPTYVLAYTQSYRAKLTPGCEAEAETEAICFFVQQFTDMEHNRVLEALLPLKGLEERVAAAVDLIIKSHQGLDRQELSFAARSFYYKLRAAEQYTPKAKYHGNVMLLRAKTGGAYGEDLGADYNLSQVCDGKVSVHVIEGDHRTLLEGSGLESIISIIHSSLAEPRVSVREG

IC50	Structure (SMILES)
0.126 µM	N#Cc1ccc(-c2ccc(-n3c(C[C@@H]4CCN(C(=O)C5CC5)C4)n[nH]c3=O)cc2)cc1 [Example 4, 4′-(3-{[(3S)-1-(cyclopropylcarbonyl)-3-pyrrolidinyl]methyl}-5-oxo-1,5-dihydro-4H-1,2,4-triazol-4-yl)-4-biphenylcarbonitrile]

These compounds were tested against T1, FAS (assay: not given). Details: inhibition of FAS; tested by one of the two FAS assays; value from at least one experiment or the average of multiple experiments.

IC50	Structure (SMILES)
0.04 µM	COc1ccc(-c2ccc(-n3c(C[C@@H]4CCN(C(=O)C5CC5)C4)n[nH]c3=O)c(F)c2)cc1 [Example 116, 5-{[(3S)-1-(cyclopropylcarbonyl)-3-pyrrolidinyl]methyl}-4-[3-fluoro-4′-(methyloxy)-4-biphenylyl]-2,4-dihydro-3H-1,2,4-triazol-3-one]
0.158 µM	O=C(C1CC1)N1CC[C@@H](Cc2n[nH]c(=O)n2-c2ccc(-c3ccc4c(c3)OCO4)cc2)C1 [Example 38, 4-[4-(1,3-benzodioxol-5-yl)phenyl]-5-{[(3S)-1-(cyclopropylcarbonyl)-3-pyrrolidinyl]methyl}-2,4-dihydro-3H-1,2,4-triazol-3-one]
0.005 µM	Cc1cc(-c2ccc3cc[nH]c3c2)ccc1-n1c(C[C@@H]2CCN(C(=O)C3CC3)C2)n[nH]c1=O [Example 42, 5-{[(3S)-1-(cyclopropylcarbonyl)-3-pyrrolidinyl]methyl}-4-[4-(1H-indol-6-yl)-2-methylphenyl]-2,4-dihydro-3H-1,2,4-triazol-3-one]
0.2 µM	CN(C)Cc1ccc(-c2ccc(-n3c(C[C@@H]4CCN(C(=O)C5CC5)C4)n[nH]c3=O)cc2)cc1 [Example 95, 5-{[(3S)-1-(cyclopropylcarbonyl)-3-pyrrolidinyl]methyl}-4-{4′-[(dimethylamino)methyl]-4-biphenylyl}-2,4-dihydro-3H-1,2,4-triazol-3-one]
0.006 µM	O=C(C1CC1)N1CC[C@@H](Cc2n[nH]c(=O)n2-c2ccc(-c3ccc4ccoc4c3)cc2)C1 [Example 14, 4-[4-(1-benzofuran-6-yl)phenyl]-5-{[(3S)-1-(cyclopropylcarbonyl)-3-pyrrolidinyl]methyl}-2,4-dihydro-3H-1,2,4-triazol-3-one]
0.016 µM	O=C(C1CC1)N1CC(Cc2n[nH]c(=O)n2-c2ccc(-c3ccc4cc[nH]c4c3)cc2)C1 [Example 67, 5-{[1-(cyclopropylcarbonyl)-3-azetidinyl]methyl}-4-[4-(1H-indol-6-yl)phenyl]-2,4-dihydro-3H-1,2,4-triazol-3-one]
0.013 µM	Cn1cnc2cc(-c3ccc(-n4c(C[C@@H]5CCN(C(=O)C6CC6)C5)n[nH]c4=O)cc3)ccc21 [Example 23, 5-{[(3S)-1-(cyclopropylcarbonyl)-3-pyrrolidinyl]methyl}-4-[4-(1-methyl-1H-benzimidazol-5-yl)phenyl]-2,4-dihydro-3H-1,2,4-triazol-3-one]
0.02 µM	Cn1nc(C[C@@H]2CCN(C(=O)C3CC3)C2)n(-c2ccc(-c3ccc4occc4c3)cc2)c1=O [Example 7, 4-[4-(1-benzofuran-5-yl)phenyl]-5-{[(3S)-1-(cyclopropylcarbonyl)-3-pyrrolidinyl]methyl}-2-methyl-2,4-dihydro-3H-1,2,4-triazol-3-one]
0.003 µM	O=C(C1CC1)N1CC[C@@H](Cc2n[nH]c(=O)n2-c2ccc(-c3ccc4cnccc4c3)cc2F)C1 [Example 132, 5-{[(3S)-1-(cyclopropylcarbonyl)-3-pyrrolidinyl]methyl}-4-[2-fluoro-4-(6-isoquinolinyl)phenyl]-2,4-dihydro-3H-1,2,4-triazol-3-one]
0.398 µM	CC(=O)Nc1ccc(-c2ccc(-n3c(C[C@@H]4CCN(C(=O)C5CC5)C4)n[nH]c3=O)c(F)c2)cc1 [Example 158, N-[4′-(3-{[(3S)-1-(cyclopropylcarbonyl)-3-pyrrolidinyl]methyl}-5-oxo-1,5-dihydro-4H-1,2,4-triazol-4-yl)-3′-fluoro-4-biphenylyl]acetamide]
